Source: patent US20110009266A1, “Herbicidal Compositions Comprising Pyroxasulfone” (BASF SE, priority 2008, published 2011)
Where two headings read alike, the source gives them in different places.

What was measured:
Format in all cases: in vivo
[1] = test system: LOLMU (Lolium multiflorum, italian ryegrass); test: greenhouse herbicidal activity on Lolium multiflorum; details: Post-Emergence; for inhibition at 13 g/ha / inhibition at 50 g/ha: Lolium multiflorum; for inhibition at 50 g/ha: 50 g ai/ha
Excerpt: (§1) For the post-emergence treatment, the test plants were first grown to a height of 3 to 20 cm, depending on the plant habit, and only then treated. Here, the herbicidal compositions were suspended or emulsified in water as distribution medium and sprayed using finely distributing nozzles.
(§2) The respective herbicides A and/or safener were formulated as 10% by weight strength suspension concentrate and introduced to the spray liquor with the amount of solvent system used for applying the active compound. Herbicide B and/or safener were used as commercially available formulations and introduced to the spray liquor with the amount of solvent system used for applying the active compound. In the examples, the solvent used was water.
(§3) Picolinafen was used as a commercial wettable granule formulation having an active ingredient content of 75% by weight.
(§4) 4-(3-trifluoromethylphenoxy)-2-(4-trifluoromethylphenyl)-pyrimidine was used as an aqueous suspension concentrate having an active ingredient concentration of 200 g/l.
(§5) The test period extended over 21 days. During this time, the plants were tended, and their response to the treatments with active compound was evaluated.
(§6) The evaluation for the damage caused by the chemical compositions was carried out using a scale from 0 to 100%, compared to the untreated control plants. Here, 0 means no damage and 100 means complete destruction of the plants.
(§7) The value E, which is to be expected if the activity of the individual compounds is just additive, was calculated using the method of S. R. Colby (1967) “Calculating synergistic and antagonistic responses of herbicide combinations”, Weeds 15, p. 22 ff.
(§8) where X=effect in percent using herbicide A at an application rate a; • Y=effect in percent using herbicide B at an application rate b; • E=expected effect (in %) of A+B at application rates a+b.
(§9) If the value observed in this manner is higher than the value E calculated according to Colby, a synergistic effect is present.

[2] = test system: STEME (Stellaria media, chickweed); test: greenhouse herbicidal activity on Stellaria media; details: Post-Emergence; for inhibition at 50 g/ha: Stellaria media
Excerpt: as §1, §2, §3, §4, §5, §6, §7, §8, §9

[3] = test system: GALAP (Galium aparine, cleaver); test: greenhouse herbicidal activity on Galium aparine; details: Post-Emergence, 20 DAT
Excerpt: as §1, §2, §4, §5, §6, §7, §8, §9

[4] = test system: VERPE (Veronica persica, field speedwell); test: greenhouse herbicidal activity on Veronica persica; details: Post-Emergence, 20 DAT
Excerpt: as §1
as §2, with “water. […]” for “water.”
(§10) The test period extended over 21 days. During this time, the plants were tended, and their response to the treatments with active compound was evaluated. […]
(§11) The value E, which is to be expected if the activity of the individual compounds is just additive, was calculated using the method of S. R. Colby (1967) “Calculating synergistic and antagonistic responses of herbicide combinations”, Weeds 15, p. […]
as §9

[5] = test system: ALOMY (Alopecurus myosuroides, blackgrass); test: greenhouse herbicidal activity on Alopecurus myosuroides; details: Post-Emergence, 20 DAT
Excerpt: as §1
as §2, with “water. […]” for “water.”
as §10, §11, §9

[6] = test system: PHACA (Phalaris canariensis, canarygrass); test: greenhouse herbicidal activity on Phalaris canariensis; details: Post-Emergence; for inhibition at 50 g/ha / inhibition at 100 g/ha: Phalaris canariensis; for inhibition at 50 g/ha: 50 g ai/ha; for inhibition at 100 g/ha: 100 g ai/ha
Excerpt: as §1, §2, §3, §5, §6, §7, §8, §9

[7] = 192 h, 8 DAT, read-out: observed % activity 8 DAT
[8] = 480 h, 20 DAT, read-out: observed % activity 20 DAT

FC(F)(F)c1ccc(-c2nccc(Oc3cccc(C(F)(F)F)c3)n2)cc1 [Compound B, 4-(3-trifluoromethylphenoxy)-2-(4-trifluoromethylphenyl)-pyrimidine]
observed activity in % destruction 20 days after treatment ([1]; 63 g ai/ha, 20 DAT): 50%
observed activity in % destruction 20 days after treatment ([1]; 125 g ai/ha, 20 DAT): 70%
observed activity in % destruction 20 days after treatment ([2]; 16 g ai/ha, 20 DAT): 95%
observed activity in % destruction 20 days after treatment ([2]; 31 g ai/ha, 20 DAT): 95%
observed activity in % destruction 20 days after treatment ([3]; 31 g ai/ha): 85%
observed activity in % destruction 20 days after treatment ([3]; 63 g ai/ha): 85%
observed activity in % destruction 20 days after treatment ([4]; 31 g ai/ha): 98%
observed activity in % destruction 20 days after treatment ([5]; 16 g ai/ha): 15%

O=C(Nc1ccc(F)cc1)c1cccc(Oc2cccc(C(F)(F)F)c2)n1 [picolinafen]
observed % activity 8 DAT ([1]; 25 g ai/ha, 8 DAT): 0%
observed % activity 20 DAT ([1]; 25 g ai/ha, 20 DAT): 20%
observed % activity 8 DAT ([6]; 13 g ai/ha, 8 DAT): 10%
observed % activity 20 DAT ([6]; 13 g ai/ha, 20 DAT): 30%
observed % activity 8 DAT ([2]; 13 g ai/ha, 8 DAT): 60%
observed % activity 20 DAT ([2]; 13 g ai/ha, 20 DAT): 90%

Cn1nc(C(F)(F)F)c(CS(=O)(=O)C2=NOC(C)(C)C2)c1OC(F)F [pyroxasulfone, 3-[5-(difluoromethoxy)-1-methyl-3-(trifluoromethyl)pyrazol-4-ylmethylsulfonyl]-4,5-dihydro-5,5-dimethyl-1,2-oxazole]
inhibition at 13 g/ha ([1]; 192 h, 13 g ai/ha, 8 DAT, read-out: observed % activity 8 DAT): 40%
inhibition at 50 g/ha [1, 7]: 50%
inhibition at 13 g/ha ([1]; 480 h, 13 g ai/ha, 20 DAT, read-out: observed % activity 20 DAT): 50%
inhibition at 50 g/ha [1, 8]: 85%
observed activity in % destruction 20 days after treatment ([1]; 13 g ai/ha, 20 DAT (Table 2)): 50%
observed activity in % destruction 20 days after treatment ([1]; 25 g ai/ha, 20 DAT (Table 2)): 75%
inhibition at 50 g/ha [6, 7]: 55%
inhibition at 100 g/ha [6, 7]: 60%
inhibition at 50 g/ha [6, 8]: 90%
inhibition at 100 g/ha [6, 8]: 90%
observed activity in % destruction 20 days after treatment ([2]; 25 g ai/ha, 20 DAT): 80%
observed activity in % destruction 20 days after treatment ([2]; 50 g ai/ha, 20 DAT (Table 2)): 85%
inhibition at 50 g/ha ([2]; 192 h, 50 g ai/ha, 8 DAT, read-out: observed % activity 8 DAT): 70%
inhibition at 50 g/ha ([2]; 480 h, 50 g ai/ha, 20 DAT, read-out: observed % activity 20 DAT): 85%
observed activity in % destruction 20 days after treatment ([3]; 25 g ai/ha): 90%
observed activity in % destruction 20 days after treatment ([3]; 50 g ai/ha): 90%
observed activity in % destruction 20 days after treatment ([3]; 100 g ai/ha): 95%
observed activity in % destruction 20 days after treatment ([4]; 25 g ai/ha): 60%
observed activity in % destruction 20 days after treatment ([5]; 100 g ai/ha): 90%
